Results reported in ChEMBL document CHEMBL5537208 (J Med Chem, 2024).
≈ marks a conversion by molar mass, not a printed value.

Assays:
[1] = Drug concentration in Wistar rat Cerebrospinal fluid at 30 mg/kg, po measured after 1 hr by LC-tandem MS analysis; type: ADME, organism-based; conditions: read-out: Ct
[2] = In vivo receptor occupancy at OX2R in Wistar rat brain at 30 mg/kg, po measured after 1 hr relative to control; type: functional
[3] = molecular target: T1, Orexin/Hypocretin receptor type 1 (Homo sapiens, UniProt O43613)
T1 sequence (O43613 whole entry): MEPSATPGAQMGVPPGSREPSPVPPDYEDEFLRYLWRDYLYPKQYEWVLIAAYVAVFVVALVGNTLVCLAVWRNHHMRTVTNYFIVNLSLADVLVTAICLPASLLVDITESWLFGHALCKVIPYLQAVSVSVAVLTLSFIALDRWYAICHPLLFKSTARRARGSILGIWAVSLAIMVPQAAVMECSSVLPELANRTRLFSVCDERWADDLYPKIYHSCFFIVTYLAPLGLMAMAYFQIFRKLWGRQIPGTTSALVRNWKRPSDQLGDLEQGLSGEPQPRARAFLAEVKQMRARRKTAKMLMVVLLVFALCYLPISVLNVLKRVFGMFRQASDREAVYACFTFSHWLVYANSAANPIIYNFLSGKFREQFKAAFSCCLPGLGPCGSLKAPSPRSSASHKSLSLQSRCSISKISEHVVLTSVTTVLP
Description: Antagonist activity at human OX1R expressed in CHO cells preincubated for 120 mins followed by orexin-A addition by FLIPR assay

[4] = Unbound drug concentration in Wistar rat brain at 1 mg/kg, po measured after 1 hr by LC-tandem MS analysis; type: ADME, organism-based; conditions: in vivo
in vitro [5] = conditions: dog, MDCK-MDR1
Description: Efflux ratio in MDCKI-MDR1 cells

[6] = Drug absorption in dog; type: ADME, Canis lupus familiaris; conditions: in vivo
[7] = Clearance in dog; type: ADME, Canis lupus familiaris; conditions: in vivo
[8] = Unbound drug concentration in Wistar rat plasma at 1 mg/kg, po measured after 1 hr by LC-tandem MS analysis; type: ADME, organism-based; conditions: in vivo
[9] = Apparent permeability across basal to apical side in MDCKI-MDR1 cells; type: ADME, cell-based, Canis lupus familiaris; conditions: dog, MDCK-MDR1
[10] = Ratio of unbound drug concentration in Wistar rat brain to plasma at 1 mg/kg, po measured after 1 hr by LC-tandem MS analysis; type: ADME, organism-based; conditions: read-out: K(p,uu,brain)
[11] = Drug concentration in Wistar rat Cerebrospinal fluid at 100 mg/kg, po measured after 1 hr by LC-tandem MS analysis; type: ADME, organism-based; conditions: read-out: Ct
[12] = Drug concentration in cerebrospinal fluid of Wistar rat at 1 mg/kg, po measured after 1 hr by LC-tandem MS analysis; type: ADME, organism-based; conditions: read-out: Ct
[13] = Unbound drug concentration in Wistar rat brain at 100 mg/kg, po measured after 1 hr by LC-tandem MS analysis; type: ADME, organism-based; conditions: in vivo
[14] = Clearance in rat; type: ADME; conditions: in vivo
Orexin receptor type 2 = molecular target: T2, Orexin receptor type 2 (Homo sapiens, UniProt O43614)
T2 sequence (O43614 whole entry): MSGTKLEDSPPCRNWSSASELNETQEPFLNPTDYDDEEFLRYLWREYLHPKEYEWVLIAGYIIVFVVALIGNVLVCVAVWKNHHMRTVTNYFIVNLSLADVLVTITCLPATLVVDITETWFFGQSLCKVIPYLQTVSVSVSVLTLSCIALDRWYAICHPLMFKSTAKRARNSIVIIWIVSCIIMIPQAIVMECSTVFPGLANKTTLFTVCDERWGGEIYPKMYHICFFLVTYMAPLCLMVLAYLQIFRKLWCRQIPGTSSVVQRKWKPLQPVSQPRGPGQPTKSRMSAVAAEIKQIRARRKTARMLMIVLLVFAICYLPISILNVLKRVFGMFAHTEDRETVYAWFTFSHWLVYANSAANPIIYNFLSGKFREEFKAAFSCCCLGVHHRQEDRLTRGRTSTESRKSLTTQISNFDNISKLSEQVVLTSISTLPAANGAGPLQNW
Description: Antagonist activity at human OX2R expressed in CHO cells preincubated for 120 mins followed by orexin-A addition by FLIPR assay

[15] = Unbound drug concentration in Wistar rat brain at 30 mg/kg, po measured after 1 hr by LC-tandem MS analysis; type: ADME, organism-based; conditions: in vivo
[16] = In vivo receptor occupancy at OX2R in Wistar rat brain at 100 mg/kg, po measured after 1 hr relative to control; type: functional
[17] = Solubility of compound in FeSSIF; type: ADME
in vitro [18] = conditions: rat, liver microsomes
[19] = Thermodynamic solubility in FaSSIF at pH 6.5; type: ADME; conditions: read-out: Therm_solubility
in vitro [20] = conditions: human, liver microsomes
[21] = Thermodynamic solubility in FeSSIF at pH 5.0; type: ADME; conditions: read-out: Therm_solubility
[22] = Apparent permeability across apical to basal side in MDCKI-MDR1 cells; type: ADME, cell-based, Canis lupus familiaris; conditions: dog, MDCK-MDR1
[23] = Apparent permeability in wild-type MDCK-II cells; type: ADME, cell-based, Canis lupus familiaris; conditions: dog
[24] = Drug absorption in rat; type: ADME; conditions: in vivo

concentration at 1 h [1]: 0.24 µM | IC50 [3]: 0.0017 µM | Drug uptake(free) [4]: 413 nM | efflux ratio (in vitro [5]): 3.5 | Drug absorption [6]: Active | clearance [7]: 0.462 L/h/kg | Cp(f) [8]: 0.227 µM | Papp B→A [9]: 705 nm/s | Kp uu at 1 h [10]: 1.82 | concentration at 1 h [11]: 0.718 µM | concentration at 1 h [12]: 0.718 µM | Drug uptake(free) [13]: 413 nM | clearance [14]: 1.86 L/h/kg | IC50 (Orexin receptor type 2): 0.227 µM | Drug uptake(free) [15]: 92 nM | solubility [17]: 0.27 mg/mL (≈ 629 µM) | microsomal CLint at 1 µM (in vitro [18]): > 1250 µL/min/mg | solubility thermodynamic [19]: 0.072 mg/mL (≈ 168 µM) | microsomal CLint at 1 µM (in vitro [20]): 156 µL/min/mg | solubility thermodynamic [21]: 0.15 mg/mL (≈ 349 µM) | Papp A→B [22]: 204 nm/s | Papp [23]: 439 nm/s | Drug absorption [24]: Active
SMILES: Cc1ccc(C(=O)N2CCOC[C@H]2Cc2cccc(-n3nccn3)c2)c(-n2nccn2)c1 [NIVASOREXANT]
Occ [2]: 71% | Occ [16]: 92%
